For test [1], the system named is obese, non-diabetic rhesus monkeys. Nature of the test: Dyslipidemic rhesus monkey model, oral dose-escalation study for 28 days. It is filed as in vivo. As to the method: The compound of Formula 1 was examined in a dyslipidemic rhesus monkey model. […] HDL cholesterol increased by more than 40% in the 3.0 mg/kg b.i.d. dose group. LDL cholesterol decreased by approximately 25% in the 9.0 mg/kg b.i.d dose group, and a dose-related effect on triglycerides yielded a maximum 53% reduction in the 9.0 mg/k.g b.i.d dose group.

A further test addresses T1, PPARγ (Homo sapiens, UniProt P37231).
T1 construct: expressed in transfected cells; host or cells: CV-1 cells
T1 sequence (P37231 1-505): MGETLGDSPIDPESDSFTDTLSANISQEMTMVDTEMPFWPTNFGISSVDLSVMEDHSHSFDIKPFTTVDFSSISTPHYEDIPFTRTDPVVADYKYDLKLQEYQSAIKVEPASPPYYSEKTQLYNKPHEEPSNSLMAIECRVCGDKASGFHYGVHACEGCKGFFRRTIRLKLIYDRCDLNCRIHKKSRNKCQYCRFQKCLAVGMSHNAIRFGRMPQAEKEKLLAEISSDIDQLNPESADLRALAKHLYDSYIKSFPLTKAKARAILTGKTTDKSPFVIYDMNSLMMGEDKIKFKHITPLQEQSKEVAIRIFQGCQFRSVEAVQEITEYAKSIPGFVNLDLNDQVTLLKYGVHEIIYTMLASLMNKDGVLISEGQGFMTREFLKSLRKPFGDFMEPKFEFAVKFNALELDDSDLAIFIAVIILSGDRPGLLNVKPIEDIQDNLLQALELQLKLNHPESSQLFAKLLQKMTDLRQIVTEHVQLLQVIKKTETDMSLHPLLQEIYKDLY
Nature of the test: PPAR cotransfection (transactivation) assay in CV-1 cells. It is filed as cell-based. The method, then:
(§1) DNA-dependent binding is carried out using SPA technology with PPAR receptors. Tritium-labeled PPARα agonists are used as radioligands for generating displacement curves and IC50 values with compounds of the invention. Cotransfection assays are carried out in CV-1 cells. The reporter plasmid contained an acylCoA oxidase (AOX) PPRE and TK promoter upstream of the luciferase reporter cDNA. Appropriate PPARs are constitutively expressed using plasmids containing the CMV promoter. For PPARα, interference by endogenous PPARγ in CV-1 cells is an issue. In order to eliminate such interference, a GAL4 chimeric system is used in which the DNA binding domain of the transfected PPAR is replaced by that of GAL4, and the GAL4 response element is utilized in place of the AOX PPRE. Cotransfection efficacy is determined relative to PPAR agonist reference molecules. Efficacies are determined by computer fit to a concentration-response curve, or in some cases at a single high concentration of agonist (10 μM).
(§2) These studies are carried out to evaluate the ability of compounds of the invention to bind to and/or activate various nuclear transcription factors, particularly huPPARδ (“hu” indicates “human”). These studies provide in vitro data concerning efficacy and selectivity of compounds of the invention.

The next test deals with T2, PPARδ (Homo sapiens, UniProt Q03181).
T2 construct: expressed in transfected cells; host or cells: CV-1 cells
T2 sequence (Q03181 1-441): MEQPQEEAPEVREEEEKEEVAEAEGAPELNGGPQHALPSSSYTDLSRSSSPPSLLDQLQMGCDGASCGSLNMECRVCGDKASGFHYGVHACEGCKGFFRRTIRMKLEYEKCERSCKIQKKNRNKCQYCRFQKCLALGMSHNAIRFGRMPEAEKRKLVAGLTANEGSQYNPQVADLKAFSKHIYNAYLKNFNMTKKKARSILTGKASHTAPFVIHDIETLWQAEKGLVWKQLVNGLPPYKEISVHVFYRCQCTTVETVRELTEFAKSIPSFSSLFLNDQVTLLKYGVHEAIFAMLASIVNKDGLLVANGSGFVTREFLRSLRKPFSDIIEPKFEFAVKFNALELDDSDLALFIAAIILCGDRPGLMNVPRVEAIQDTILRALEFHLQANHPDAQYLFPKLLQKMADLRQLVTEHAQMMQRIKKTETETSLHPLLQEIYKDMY
The description is as above. It is filed as cell-based. As to the method: as §1, §2

Another test has as its target T3, PPARα (Homo sapiens, UniProt Q07869).
T3 sequence (Q07869 201-468 limits assumed): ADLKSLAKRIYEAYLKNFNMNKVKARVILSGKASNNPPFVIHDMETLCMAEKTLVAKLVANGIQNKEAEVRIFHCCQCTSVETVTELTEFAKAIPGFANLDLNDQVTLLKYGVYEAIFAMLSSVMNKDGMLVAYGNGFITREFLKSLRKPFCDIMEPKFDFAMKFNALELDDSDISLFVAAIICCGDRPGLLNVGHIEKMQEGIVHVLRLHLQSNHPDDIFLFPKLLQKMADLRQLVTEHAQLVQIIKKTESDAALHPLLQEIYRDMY
In words: PPAR cotransfection (transactivation) assay in CV-1 cells, GAL4 chimeric system. It is filed as cell-based. The method, then: as §1, §2

One may read the EC50 as the concentration needed to bring the measured effect to its halfway point. Regarding `Cc1cc(SCc2cn(-c3ccc(C(F)(F)F)cc3)nc2C)ccc1OCC(=O)O` [Formula 1, {2-Methyl-4-[3-methyl-1-(4-trifluoromethyl-phenyl)-1H-pyrazol-4-ylmethylsulfanyl]-phenoxy}-acetic acid], the C-reactive protein levels result in test [1] (compared to pretreatment levels) is recorded as “reduced compared to pretreatment levels”. Moreover, the HDL-c change entry in test [1] (oral dose-escalation, 28 days, each dose) was “elevation of HDL-c with each dose”. Besides, in test [1] (oral, 3.0 mg/kg b.i.d. dose group), the HDL cholesterol increase result was “more than 40%”. Moreover, the LDL cholesterol decrease result in test [1] (oral, 9.0 mg/kg b.i.d. dose group) is on record as “approximately 25%”. The triglycerides maximum reduction in test [1] (oral, 9.0 mg/kg b.i.d. dose group, dose-related effect) worked out at 53%. Further, the EC50 at PPARγ is 2600 nM; on PPARδ, 20 nM; at PPARα, 1800 nM.
